Source: patent publication US11752195B2, “Compositions and methods of use of synthetic peptides with Mycobacterium abscessus inhibitory activity” (priority 2021, dated 2023)
In brackets after ≈: the same amount, converted by molar mass. Like-named read-outs stand apart in the source and are kept apart here. Peptide text beside a SMILES is read from it.

What was measured:
[1] = test system: Mabs 19977S (Mabs ATCC 19977 smooth morphotype); experiment: Growth inhibition screen with unpurified peptides in M7H9, MHB, CAMHB; assay type: cell-based, Mycobacterium abscessus; conditions: unpurified peptide 100 μM
Experimental: (§1) Mabs ATCC 19977 smooth morphotype (Mabs 19977S) cells were cultured at 37° C. in Middlebrook 7H9 supplemented with albumin, dextrose, and catalase (ADC) (10%), Tween 80 (0.05%), and glycerol (0.2%) (herein referred to as M7H9). Mabs 19977S was exposed to clarithromycin (8 μg/ml) in M7H9 for 24 h at 37° C., subjected to serial dilutions and plated on Middlebrook 7H10 agar supplemented with oleic acid, albumin, dextrose, and catalase (OADC) (herein referred to as M7H10). After 5 d incubation at 37° C., a single, isolated colony displaying a rough morphotype (Mabs 19977R) was detected, grown, and stored at −70° C. Mabs 19977S and Mabs 19977R were grown for approximately 32 h at 37° C., diluted 1:100 in fresh, pre-warmed M7H9, and grown for an additional 14 h until the cultures reached early-to-mid-logarithmic phase (OD600=0.2-0.3).
(§2) Bacteria grown in M7H9, MHB, and cation-adjusted MHB (CAMHB) were used to identify unpurified peptides with inhibitory activity against Mabs 19977S and Mabs 19977R. Peptides (50-65% purity) were synthesized by Sigma Aldrich (St. Louis, Mo.) PEPscreen Custom Peptide Libraries. Mabs ATCC 19977S and ATCC 19977R mid-logarithmic phase cultures were centrifuged (3,715×g) for 2 min, washed in pre-warmed M7H9, re-suspended in M7H9, MHB, or CAMHB, and diluted to 10^6 CFU/ml. In a 96-well polystyrene microtiter plate, media (M7H9, MHB, or CAMHB), unpurified peptides (100 μM or 10 μM), ethylenediaminetetraacetic acid (EDTA) (100 μM), and cells (Mabs 19977S or Mabs 19977R) (10^5 CFU/ml) were added. EDTA was added to determine if metal ion chelation would alter peptide activity. Clarithromycin (4 μg/ml) was used as an antibiotic positive control. The 96-well microtiter plates were statically incubated at 37° C. for 72 h. The OD600 was measured every 24 h using a SpectraMax M2 microplate reader (Molecular Devices, San Jose, Calif., USA). Peptides that reduced Mabs growth by ≥50%, when compared to the growth control OD600, were considered active.
(§3) In culture medium with cation supplementation (CAMHB), ASU2060 (100 μM) had activity against both morphotypes when EDTA was added (FIG. 2F). […] There were no peptides with inhibitory activity in CAMHB without EDTA (FIG. 2E).

[2] = test system: Mabs 19977R (rough morphotype); experiment: as above; assay type: cell-based, Mycobacterium abscessus; conditions: unpurified peptide 100 μM
Experimental: as §1, §2, §3

[3] = test system: human red blood cell (hRBC); experiment: Human red blood cell (hRBC) hemolytic assay; assay type: cell-based
Experimental: To determine if the purified, Mabs inhibitory peptides were toxic, human red blood cell (hRBC) hemolytic assays were performed. Peptides (at 1×, 2×, and 4× their respective Mabs 19977S MICs) were added to 4% hRBC in saline and statically incubated for 1 h or 18 h at 37° C. […] Following incubation, the peptide-hRBC mixtures and the 1% Triton X-100 positive controls were centrifuged for 1 min at 1,000×g to pellet the intact hRBC. The supernatant for each experimental mixture and control was removed, and OD475 measurements were recorded to determine the percentage of lysed hRBC. The percentage of hemolytic activity was normalized by comparing the supernatant absorbance of all conditions tested to an equivalent number of hRBC lysed with 1% Triton X-100 (Eq. 1) (50).

Mabs 19977R = conditions: 96 h
Experimental: (§4) In order to determine effects on Mabs viability, microdilution antimicrobial assays were performed in MHB.

Mabs 19977S = conditions: purified peptide, MHB with EDTA (100 μM), 96 h, 37° C.
Experimental: as §4

[4] = test system: E. coli clinical isolates
Excerpt: (approved by Mayo Clinic Biospecimen Subcommittee BIO00015462).

E. coli ATCC 25922 = assay type: cell-based, Escherichia coli; conditions: ATCC 25922, 22 h
Experimental: Samples were serially diluted in MHB to ˜10^5 CFU/ml and added to a 96-well polystyrene plate prepared with ASU2060 (128-4 μM). After incubation for 22 h at 37° C., the OD600 was measured using a SpectraMax M2 microplate reader (Molecular Devices, San Jose, Calif., USA). Values were normalized to the medium blank (MHB) and E. coli (ATCC 25922) treated with nitrofurantoin at 64 μM.

[5] = purified peptide, MHB with EDTA (100 μM), 37° C.

Compound | activity (growth reduced by ≥50% vs growth control OD600) ([1]; M7H9, with EDTA (100 μM)) | activity (growth reduced by ≥50% vs growth control OD600) ([1]; MHB, with EDTA) | activity (growth reduced by ≥50% vs growth control OD600) ([2]; M7H9, with EDTA (100 μM)) | activity (growth reduced by ≥50% vs growth control OD600) ([2]; MHB, with EDTA) | MIC (Mabs 19977S) [µM] | further results
CC(C)C[C@@H](NC(=O)[C@@H](C)NC(=O)CNC(=O)[C@@H](CC(C)C)NC(=O)[C@@H](CCCCN)NC(=O)[C@@H](CCCNC(=N)N)NC(=O)[C@@H](CCCNC(=N)N)NC(=O)[C@H](CC(N)=O)NC(=O)[C@H](Cc1ccc(O)cc1)NC(=O)[C@@H](CCCNC(=N)N)NC(=O)[C@H](C)NC(=O)[C@H](CO)NC(=O)[C@@H](CCCNC(=N)N)NC(=O)CNC(=O)[C@@H](N)Cc1ccc(O)cc1)C(=O)N[C@@H](CO)C(=O)NCC(=O)O [ASU2059, YGrSArYNrrklGalSG] (HELM PEPTIDE1{Y.G.[dR].S.A.[dR].Y.N.[dR].[dR].[dK].[dL].G.[dA].[dL].S.G}$$$$V2.0) | exhibited activity | maintained activity | exhibited activity | maintained activity | – | –
Triton X-100 [reference compound] | – | – | – | – | – | hRBC lysis by positive control ([3]; Triton X-100 1%, 4% hRBC): complete hRBC lysis
CC(C)[C@H](NC(=O)[C@@H](CCCCN)NC(=O)[C@H](C)NC(=O)[C@@H](C)NC(=O)[C@@H](CCCCN)NC(=O)[C@H](CO)NC(=O)[C@@H](CCCNC(=N)N)NC(=O)CNC(=O)[C@H](CC(N)=O)NC(=O)[C@H](Cc1ccccc1)NC(=O)[C@@H](N)CCC(N)=O)C(=O)N[C@@H](CC(N)=O)C(=O)N[C@@H](Cc1ccccc1)C(=O)N[C@H](Cc1c[nH]c2ccccc12)C(=O)N[C@H](CCCNC(=N)N)C(=O)N[C@H](CCCCN)C(=O)N[C@H](C)C(=O)O [ASU2001, QFNGrSkaAkVNFwrka] (HELM PEPTIDE1{Q.F.N.G.[dR].S.[dK].[dA].A.[dK].V.N.F.[dW].[dR].[dK].[dA]}$$$$V2.0) | exhibited activity | maintained activity | exhibited activity | maintained activity | – | activity (growth reduced by ≥50% vs growth control OD600) ([2]; M7H9, without EDTA): exhibited activity
CC(C)C[C@@H](NC(=O)[C@@H](C)NC(=O)[C@@H](CCCCN)NC(=O)[C@@H](CCCNC(=N)N)NC(=O)[C@H](Cc1ccccc1)NC(=O)[C@H](CCC(N)=O)NC(=O)[C@H](CC(N)=O)NC(=O)[C@@H](NC(=O)[C@@H](CCCCN)NC(=O)[C@@H](CCCNC(=N)N)NC(=O)[C@H](C)NC(=O)[C@@H](CCCCN)NC(=O)[C@H](CO)NC(=O)[C@@H](CC(C)C)NC(=O)CNC(=O)[C@H](Cc1ccc(O)cc1)NC(=O)[C@H](N)CCCNC(=N)N)C(C)C)C(N)=O [ASU2009, rYGlSkArkVNQFrkal] (HELM PEPTIDE1{[dR].Y.G.[dL].S.[dK].A.[dR].[dK].V.N.Q.F.[dR].[dK].[dA].[dL].[am]}$$$$V2.0) | exhibited activity | maintained activity | exhibited activity | maintained activity | – | –
CC(C)C[C@@H](NC(=O)[C@@H](C)NC(=O)[C@H](CO)NC(=O)[C@@H](CCCCN)NC(=O)[C@@H](CCCNC(=N)N)NC(=O)[C@@H](CCCNC(=N)N)NC(=O)[C@H](Cc1ccccc1)NC(=O)[C@@H](CC(C)C)NC(=O)[C@H](CC(N)=O)NC(=O)[C@H](Cc1c[nH]cn1)NC(=O)[C@@H]1CCCN1C(=O)[C@H](C)NC(=O)[C@H](CO)NC(=O)[C@@H]1CCCN1C(=O)CNC(=O)[C@@H](NC(=O)[C@H](N)CCCNC(=N)N)C(C)C)C(N)=O [ASU2019] (HELM PEPTIDE1{[dR].V.G.P.S.A.P.H.N.[dL].F.[dR].[dR].[dK].S.[dA].[dL].[am]}$$$$V2.0; N-terminus and C-terminus assumed) | – | – | – | – | 256 (≈ 488 µg/mL) | relative hRBC toxicity among the six peptides [3]: the most toxicity; IC50 (Mabs 19977R): 76 to 82 µM
CC(C)C[C@@H](NC(=O)CNC(=O)[C@H](CO)NC(=O)[C@@H](CCCCN)NC(=O)[C@@H](CCCNC(=N)N)NC(=O)[C@@H](Cc1c[nH]c2ccccc12)NC(=O)[C@@H](CCCNC(=N)N)NC(=O)[C@H](Cc1ccccc1)NC(=O)[C@H](CC(N)=O)NC(=O)[C@H](Cc1ccc(O)cc1)NC(=O)[C@@H](CCCNC(=N)N)NC(=O)[C@H](C)NC(=O)[C@H](CO)NC(=O)[C@@H](Cc1c[nH]c2ccccc12)NC(=O)[C@@H](CCCNC(=N)N)NC(=O)CNC(=O)[C@@H](N)C(C)C)C(N)=O [ASU2060, VGrwSArYNFrwrkSGl] (HELM PEPTIDE1{V.G.[dR].[dW].S.A.[dR].Y.N.F.[dR].[dW].[dR].[dK].S.G.[dL].[am]}$$$$V2.0; N-terminus and C-terminus assumed) | – | – | – | – | 8 (≈ 17.1 µg/mL) | ASU2060 MIC ([4]; E. coli clinical isolate 23): 8 µM; ASU2060 MIC ([4]; E. coli clinical isolate 36): 8 µM; ASU2060 MIC ([4]; E. coli clinical isolate 45): 8 µM; ASU2060 MIC ([4]; E. coli clinical isolate 47): 8 µM; ASU2060 MIC ([4]; E. coli clinical isolate 97): 8 µM; ASU2060 MIC ([4]; E. coli clinical isolate 98): 8 µM; MIC (E. coli ATCC 25922): 4 µM (≈ 8.55 µg/mL); IC50 (Mabs 19977R; [5]): 13 µM
CC(C)C[C@@H](NC(=O)CNC(=O)[C@@H](Cc1c[nH]c2ccccc12)NC(=O)[C@@H](CCCNC(=N)N)NC(=O)[C@@H](N)CCC(N)=O)C(=O)N[C@@H](CO)C(=O)N[C@H](CC(C)C)C(=O)N[C@@H](C)C(=O)N1CCC[C@H]1C(=O)N[C@@H](Cc1ccc(O)cc1)C(=O)N[C@H](CCCCN)C(=O)N[C@@H](CC(N)=O)C(=O)N[C@@H](Cc1ccccc1)C(=O)N[C@H](CCCNC(=N)N)C(=O)N[C@H](CCCNC(=N)N)C(=O)N[C@H](CC(C)C)C(=O)N[C@@H](CO)C(N)=O [ASU2056, QrwGlSlAPYkNFrrlS] (HELM PEPTIDE1{Q.[dR].[dW].G.[dL].S.[dL].A.P.Y.[dK].N.F.[dR].[dR].[dL].S.[am]}$$$$V2.0; N-terminus and C-terminus assumed) | – | – | – | – | 32 (≈ 66.9 µg/mL) | relative hRBC toxicity among the six peptides [3]: the least toxicity; IC50 (Mabs 19977R; [5]): 45 µM
